# Legend:
# Format in all cases: functional, organism-based
# [1] = system: Klebsiella aerogenes; assay: Antibacterial activity against Enterobacter aerogenes assessed as susceptible isolates at minimum inhibitory concentration of 1 ug/ml by CLSI broth microdilution method; set-up: scale not given: the % may be the effect or the level left
# [2] = system: Pseudomonas aeruginosa; assay: Antibacterial activity against Pseudomonas aeruginosa assessed as resistant isolates at >=8 ug/ml by CLSI broth microdilution method
# [3] = system: Klebsiella oxytoca; assay: Antibacterial activity against Klebsiella oxytoca assessed as susceptible isolates at minimum inhibitory concentration of <=0.06 ug/ml by CLSI broth microdilution method; set-up: scale not given: the % may be the effect or the level left
# [4] = system: Pseudomonas aeruginosa; assay: Antibacterial activity against MDR3 Pseudomonas aeruginosa assessed as susceptible isolates at minimum inhibitory concentration of 2 ug/ml by CLSI broth microdilution method; set-up: scale not given: the % may be the effect or the level left
# [5] = system: Proteus mirabilis; assay: Antibacterial activity against Proteus mirabilis assessed as susceptible isolates at minimum inhibitory concentration of <=0.06 ug/ml by CLSI broth microdilution method; set-up: scale not given: the % may be the effect or the level left
# [6] = system: Proteus mirabilis; assay: Antibacterial activity against Proteus mirabilis assessed as susceptible isolates at minimum inhibitory concentration of 1 ug/ml by CLSI broth microdilution method; set-up: scale not given: the % may be the effect or the level left
# [7] = system: Pseudomonas aeruginosa; assay: Antibacterial activity against Pseudomonas aeruginosa assessed as susceptible isolates at minimum inhibitory concentration of <=0.06 ug/ml by CLSI broth microdilution method; set-up: scale not given: the % may be the effect or the level left
# [8] = system: Stenotrophomonas maltophilia; assay: Antibacterial activity against Stenotrophomonas maltophilia assessed as susceptible isolates at minimum inhibitory concentration of 16 ug/ml by CLSI broth microdilution method; set-up: scale not given: the % may be the effect or the level left
# [9] = system: Stenotrophomonas maltophilia; assay: Antibacterial activity against Stenotrophomonas maltophilia assessed as susceptible isolates at minimum inhibitory concentration of 8 ug/ml by CLSI broth microdilution method; set-up: scale not given: the % may be the effect or the level left
# [10] = system: Serratia marcescens; assay: Antibacterial activity against Serratia marcescens assessed as susceptible isolates at minimum inhibitory concentration of 0.25 ug/ml by CLSI broth microdilution method; set-up: scale not given: the % may be the effect or the level left
# [11] = system: Escherichia coli; assay: Antibacterial activity against ESBL-producing Escherichia coli assessed as susceptible isolates at minimum inhibitory concentration of 8 ug/ml by CLSI broth microdilution method; set-up: scale not given: the % may be the effect or the level left
# [12] = system: Pseudomonas aeruginosa; assay: Antibacterial activity against tazobactam-resistant Pseudomonas aeruginosa assessed as susceptible isolates at minimum inhibitory concentration of 0.5 ug/ml by CLSI broth microdilution method; set-up: scale not given: the % may be the effect or the level left
# [13] = system: Pseudomonas aeruginosa; assay: Antibacterial activity against Amikacin-resistant Pseudomonas aeruginosa assessed as susceptible isolates at minimum inhibitory concentration of 8 ug/ml by CLSI broth microdilution method; set-up: scale not given: the % may be the effect or the level left
# [14] = system: Pseudomonas aeruginosa; assay: Antibacterial activity against Amikacin-resistant Pseudomonas aeruginosa assessed as susceptible isolates at minimum inhibitory concentration of >16 ug/ml by CLSI broth microdilution method; set-up: scale not given: the % may be the effect or the level left
# [15] = system: Klebsiella pneumoniae; assay: Antibacterial activity against ESBL-producing Klebsiella pneumoniae assessed as susceptible isolates at minimum inhibitory concentration of >16 ug/ml by CLSI broth microdilution method; set-up: scale not given: the % may be the effect or the level left
# [16] = system: Escherichia coli; assay: Antibacterial activity against ESBL-producing Escherichia coli assessed as susceptible isolates at minimum inhibitory concentration of 1 ug/ml by CLSI broth microdilution method; set-up: scale not given: the % may be the effect or the level left
# [17] = system: Acinetobacter baumannii; assay: Antibacterial activity against Acinetobacter baumannii assessed as susceptible isolates at minimum inhibitory concentration of 8 ug/ml by CLSI broth microdilution method; set-up: scale not given: the % may be the effect or the level left
# [18] = system: Proteus mirabilis; assay: Antibacterial activity against Proteus mirabilis assessed as susceptible isolates at minimum inhibitory concentration of 0.5 ug/ml by CLSI broth microdilution method; set-up: scale not given: the % may be the effect or the level left
# [19] = system: Pseudomonas aeruginosa; assay: Antibacterial activity against tazobactam-resistant Pseudomonas aeruginosa assessed as susceptible isolates at minimum inhibitory concentration of 4 ug/ml by CLSI broth microdilution method; set-up: scale not given: the % may be the effect or the level left
# [20] = system: Stenotrophomonas maltophilia; assay: Antibacterial activity against Stenotrophomonas maltophilia assessed as susceptible isolates at minimum inhibitory concentration of 4 ug/ml by CLSI broth microdilution method; set-up: scale not given: the % may be the effect or the level left
# [21] = system: Klebsiella oxytoca; assay: Antibacterial activity against Klebsiella oxytoca assessed as susceptible isolates at minimum inhibitory concentration of 16 ug/ml by CLSI broth microdilution method; set-up: scale not given: the % may be the effect or the level left
# [22] = system: Pseudomonas aeruginosa; assay: Antibacterial activity against Ciprofloxacin-resistant Pseudomonas aeruginosa assessed as susceptible isolates at minimum inhibitory concentration of 0.5 ug/ml by CLSI broth microdilution method; set-up: scale not given: the % may be the effect or the level left
# [23] = system: Acinetobacter baumannii; assay: Antibacterial activity against Acinetobacter baumannii assessed as susceptible isolates at minimum inhibitory concentration of 16 ug/ml by CLSI broth microdilution method; set-up: scale not given: the % may be the effect or the level left
# [24] = system: Klebsiella oxytoca; assay: Antibacterial activity against Klebsiella oxytoca assessed as susceptible isolates at minimum inhibitory concentration of 0.5 ug/ml by CLSI broth microdilution method; set-up: scale not given: the % may be the effect or the level left
# [25] = system: Klebsiella pneumoniae; assay: Antibacterial activity against ESBL-producing Klebsiella pneumoniae assessed as susceptible isolates at minimum inhibitory concentration of 0.12 ug/ml by CLSI broth microdilution method; set-up: scale not given: the % may be the effect or the level left
# [26] = system: Proteus mirabilis; assay: Antibacterial activity against Proteus mirabilis assessed as susceptible isolates at minimum inhibitory concentration of 2 ug/ml by CLSI broth microdilution method; set-up: scale not given: the % may be the effect or the level left
# [27] = system: Pseudomonas aeruginosa; assay: Antibacterial activity against Meropenem-resistant Pseudomonas aeruginosa assessed as susceptible isolates at minimum inhibitory concentration of 4 ug/ml by CLSI broth microdilution method; set-up: scale not given: the % may be the effect or the level left
# [28] = system: Pseudomonas aeruginosa; assay: Antibacterial activity against Pseudomonas aeruginosa assessed as susceptible isolates at minimum inhibitory concentration of 0.25 ug/ml by CLSI broth microdilution method; set-up: scale not given: the % may be the effect or the level left
# [29] = system: Klebsiella pneumoniae; assay: Antibacterial activity against ESBL-producing Klebsiella pneumoniae assessed as susceptible isolates at minimum inhibitory concentration of <=0.06 ug/ml by CLSI broth microdilution method; set-up: scale not given: the % may be the effect or the level left
# [30] = system: Pseudomonas aeruginosa; assay: Antibacterial activity against Levofloxacin-resistant Pseudomonas aeruginosa assessed as susceptible isolates at minimum inhibitory concentration of 2 ug/ml by CLSI broth microdilution method; set-up: scale not given: the % may be the effect or the level left
# [31] = system: Stenotrophomonas maltophilia; assay: Antibacterial activity against Stenotrophomonas maltophilia assessed as susceptible isolates at minimum inhibitory concentration of 1 ug/ml by CLSI broth microdilution method; set-up: scale not given: the % may be the effect or the level left
# [32] = system: Pseudomonas aeruginosa; assay: Antibacterial activity against Ciprofloxacin-resistant Pseudomonas aeruginosa assessed as susceptible isolates at minimum inhibitory concentration of 2 ug/ml by CLSI broth microdilution method; set-up: scale not given: the % may be the effect or the level left
# [33] = system: Pseudomonas aeruginosa; assay: Antibacterial activity against Piperacillin-resistant Pseudomonas aeruginosa assessed as susceptible isolates at minimum inhibitory concentration of 4 ug/ml by CLSI broth microdilution method; set-up: scale not given: the % may be the effect or the level left
# [34] = system: Pseudomonas aeruginosa; assay: Antibacterial activity against Levofloxacin-resistant Pseudomonas aeruginosa assessed as susceptible isolates at minimum inhibitory concentration of 4 ug/ml by CLSI broth microdilution method; set-up: scale not given: the % may be the effect or the level left
# [35] = system: Escherichia coli; assay: Antibacterial activity against ESBL-producing Escherichia coli assessed as susceptible isolates at minimum inhibitory concentration of <=0.06 ug/ml by CLSI broth microdilution method; set-up: scale not given: the % may be the effect or the level left
# [36] = system: Pseudomonas aeruginosa; assay: Antibacterial activity against MDR4 Pseudomonas aeruginosa assessed as susceptible isolates at minimum inhibitory concentration of 1 ug/ml by CLSI broth microdilution method; set-up: scale not given: the % may be the effect or the level left
# [37] = system: Stenotrophomonas maltophilia; assay: Antibacterial activity against Stenotrophomonas maltophilia assessed as susceptible isolates at minimum inhibitory concentration of 0.5 ug/ml by CLSI broth microdilution method; set-up: scale not given: the % may be the effect or the level left
# [38] = system: Klebsiella oxytoca; assay: Antibacterial activity against Klebsiella oxytoca assessed as susceptible isolates at minimum inhibitory concentration of 4 ug/ml by CLSI broth microdilution method; set-up: scale not given: the % may be the effect or the level left
# [39] = system: Escherichia coli; assay: Antibacterial activity against ESBL-producing Escherichia coli assessed as susceptible isolates at minimum inhibitory concentration of >16 ug/ml by CLSI broth microdilution method; set-up: scale not given: the % may be the effect or the level left
# [40] = system: Pseudomonas aeruginosa; assay: Antibacterial activity against Ciprofloxacin-resistant Pseudomonas aeruginosa assessed as susceptible isolates at minimum inhibitory concentration of 1 ug/ml by CLSI broth microdilution method; set-up: scale not given: the % may be the effect or the level left
sequence,measurement,setting,value
COLISTIN,Activity,[1],97.3%
same,Activity,[2],1.1%
same,Activity,[3],0%
same,Activity,[4],100%
same,Activity,[5],0%
same,Activity,[6],0%
same,Activity,[7],0%
same,Activity,[8],56.6%
same,Activity,[9],50.6%
same,Activity,[10],0%
same,Activity,[11],99.5%
same,Activity,[12],1.8%
same,Activity,[13],97.4%
same,Activity,[14],100%
same,Activity,[15],100%
same,Activity,[16],97.3%
same,Activity,[17],93.5%
same,Activity,[18],0%
same,Activity,[19],100%
same,Activity,[20],33.7%
same,Activity,[21],98.1%
same,Activity,[22],4.1%
same,Activity,[23],96.8%
same,Activity,[24],74.1%
same,Activity,[25],0.8%
same,Activity,[26],0%
same,Activity,[27],100%
same,Activity,[28],0%
same,Activity,[29],0%
same,Activity,[30],92.2%
same,Activity,[31],10.8%
same,Activity,[32],92.5%
same,Activity,[33],100%
same,Activity,[34],98.2%
same,Activity,[35],0.1%
same,Activity,[36],42.3%
same,Activity,[37],4.8%
same,Activity,[38],97.2%
same,Activity,[39],100%
same,Activity,[40],31.3%

# Reference: ChEMBL document CHEMBL1671673, “In vitro activity of colistin (polymyxin E) against 3,480 isolates of gram-negative bacilli obtained from patients in Canadian hospitals in the CANWARD study, 2007-2008” (Antimicrob Agents Chemother, 2009)
